The text below walks through data of US20250353891A1 (MEDIMMUNE LIMITED, priority 2022, published 2025).

Series [1] deals with human glucagon receptor (hGCGR) (Homo sapiens, UniProt P47871). Kind of series: cAMP production (HTRF) in CHO cells expressing hGCGR. The class given is cell-based. The arrangement: expressed in transfected cells. To be noted: Table 7, peptides modified at position 20; cAMP in CHO hGCGR cells; geometric mean; read-out: hGluc-R EC50. A digest of the protocol: (§1)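 Potency values represent EC50 from 4-parameter logistic curves of HTRF % Delta F signal. Receptor-expressing CHO cells (hGCGR 2×10^5 cells/mL, hGLP-1R 1×10^5 cells/mL) were exposed for 30 min at room temperature before two-step cAMP detection.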

Series [2] deals with human GLP-1 receptor (hGLP-1R) (Homo sapiens, UniProt P43220). Briefly: cAMP production (HTRF) in CHO cells expressing hGLP-1R. The arrangement: expressed in transfected cells. In kind it is cell-based. Summed up: as §1
The target in series [3] is T1, recombinant Neprilysin (Homo sapiens, UniProt P08473).
T1 construct: purchased R&D Systems 1182-ZNC-010
Briefly: Proteolytic resistance to neprilysin. The settings on record: pH 8.3. The class given is in vitro ADME. On the procedure:
10.0 μg (˜10 units) recombinant Neprilysin (R&D Systems: 1182-ZNC-010) was reconstituted to 100 μL (100 μg/mL, ˜100 units/mL) in assay buffer (50 mM Tris, 50 mM NaCl, 50 mM NaHCO3, adjusted to pH 8.3) to give the enzyme stock solution. Peptide stock solutions were prepared to a concentration of ˜250 μM (˜1.0 mg/mL of 4 kDa peptide) in assay buffer. 100 μL (10 μg, ˜10 units) of neprilysin stock solution was added to 100 μL of peptide stock solution (1.0 mg/mL, ˜100 μg of peptide) and the mixture was co-incubated in a temperature regulated incubator at 37° C. for the duration of the experiment. 25 μL aliquots (˜ 12.5 μg initial peptide) of the peptide-enzyme mixture were periodically withdrawn (t=0, 30 mins, 1 h, 2 h, 4 h and 24 h) and quenched immediately by addition to an equal volume ([…]) of 10% TFA (v/v) in 1:1 water/acetonitrile to arrest proteolytic activity. The quenched aliquot centrifuged at 7800 rpm, and 30 μL of the supernatant was analyzed by analytical RP-HPLC as follows: Analytical RP-HPLC method: Agilent Polaris C8-A column (4.6×100 mm, 3 micron) eluted with a linear binary gradient of 10-90% MeCN (0.1% TFA v/v) in water (0.1% TFA v/v) over either 10 or 15 mins at 1.5 mL min-1 at 40° C. with detection by UV absorption at 210 nm. Manual integration (AUC) allowed estimation of remaining intact peptide over the time course of the experiment.

A short description of series [4]: Proteolytic resistance to FasSSGF containing porcine pancreatic pepsin. The class given is in vitro ADME. The settings on record: pig, simulated gastric fluid. The protocol:
Stimulated Gastric Fluid (FasSSGF) Containing Porcine Pancreatic Pepsin Lyophilized porcine pancreatic pepsin (Sigma: P7012) was reconstituted to 0.5 mg/mL (˜2500 units/mL) in freshly prepared FasSSGF (Biorelevant media) to give the enzyme stock solution. Peptide stock solution was prepared to a concentration of 250 μM (˜1.0 mg/mL) in FasSSGF. 200 μL ([…], ˜250 units) of pepsin stock solution was added to 200 μL of peptide solution (1.0 mg/mL, ˜100 μg of peptide, ˜25 nmoles) and the mixture was co-incubated in a temperature-regulated incubator at 37° C. for the duration of the experiment. 30 μL aliquot of the peptide-enzyme mixture was periodically withdrawn (t=0, 5, 10, 15, and 30 min) and quenched immediately by addition of 80 μL of 0.1M ammonium bicarbonate solution in water/acetonitrile (4:1, pH 8) to arrest proteolytic activity. 30 μL aliquot was analyzed by analytical RP-HPLC. Analytical RP-HPLC method: Agilent Polaris C8-A column (4.6×100 mm, 3 micron) eluted with a linear binary gradient of 10-90% MeCN (0.1% TFA v/v) in water (0.1% TFA v/v) over either 10 or 15 mins at 1.5 mL min-1 at 40° C. with detection by UV absorption at 210 nm. Manual integration (AUC) allowed estimation of remaining intact peptide over the time course of the experiment.

Molecules are shown by their SMILES. Starred links: 1 amine or outer side, 2 acyl side, 3 side chain; linkers in the order of their positions; H or OH if unused. Non-standard residues stand in square brackets, D forms with d. Residues, ends and D or L forms follow the SMILES beside them. Groups on a side chain read outwards from the residue. *: point of attachment. C18 diacid = O=C(O)CCCCCCCCCCCCCCCCC(=O)*; γGlu = O=C(O)[C@H](CCC(=O)[*:2])N[*:1]; αMeF = C[C@](N)(Cc1ccccc1)C(=O)O; AEEA = NCCOCCOCC(=O)O; Aib = CC(C)(N)C(=O)O

T1 sequence (P08473 52-750 limits assumed): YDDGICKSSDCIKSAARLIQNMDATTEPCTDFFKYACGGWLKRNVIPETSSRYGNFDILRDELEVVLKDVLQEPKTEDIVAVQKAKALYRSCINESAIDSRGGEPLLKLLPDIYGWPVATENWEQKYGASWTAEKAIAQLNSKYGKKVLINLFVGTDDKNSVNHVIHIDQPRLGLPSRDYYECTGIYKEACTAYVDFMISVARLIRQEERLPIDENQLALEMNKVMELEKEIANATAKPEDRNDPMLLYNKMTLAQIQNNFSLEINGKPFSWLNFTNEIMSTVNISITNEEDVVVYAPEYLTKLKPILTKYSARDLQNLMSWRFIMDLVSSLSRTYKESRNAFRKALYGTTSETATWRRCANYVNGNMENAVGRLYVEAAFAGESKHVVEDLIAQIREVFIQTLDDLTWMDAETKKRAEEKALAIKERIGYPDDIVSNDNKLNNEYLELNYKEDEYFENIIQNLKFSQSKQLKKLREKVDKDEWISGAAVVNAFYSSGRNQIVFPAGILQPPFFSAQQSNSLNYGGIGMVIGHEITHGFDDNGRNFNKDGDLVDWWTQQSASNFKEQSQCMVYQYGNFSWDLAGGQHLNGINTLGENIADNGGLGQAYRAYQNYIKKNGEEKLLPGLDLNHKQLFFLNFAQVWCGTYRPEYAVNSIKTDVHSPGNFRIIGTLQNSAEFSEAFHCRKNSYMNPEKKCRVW
Sequence of human GLP-1 receptor (hGLP-1R) (P43220 24-463): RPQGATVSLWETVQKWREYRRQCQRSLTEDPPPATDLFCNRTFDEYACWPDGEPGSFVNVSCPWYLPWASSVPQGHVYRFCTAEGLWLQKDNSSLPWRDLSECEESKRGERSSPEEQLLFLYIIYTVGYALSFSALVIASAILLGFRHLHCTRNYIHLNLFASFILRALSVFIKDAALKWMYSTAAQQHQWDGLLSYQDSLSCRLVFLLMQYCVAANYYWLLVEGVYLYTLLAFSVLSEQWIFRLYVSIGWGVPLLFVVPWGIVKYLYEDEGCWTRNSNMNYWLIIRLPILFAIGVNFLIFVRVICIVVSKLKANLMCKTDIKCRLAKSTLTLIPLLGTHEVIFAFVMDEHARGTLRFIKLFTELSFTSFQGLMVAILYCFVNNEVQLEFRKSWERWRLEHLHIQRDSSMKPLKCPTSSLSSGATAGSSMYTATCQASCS
Sequence of human glucagon receptor (hGCGR) (P47871 26-477): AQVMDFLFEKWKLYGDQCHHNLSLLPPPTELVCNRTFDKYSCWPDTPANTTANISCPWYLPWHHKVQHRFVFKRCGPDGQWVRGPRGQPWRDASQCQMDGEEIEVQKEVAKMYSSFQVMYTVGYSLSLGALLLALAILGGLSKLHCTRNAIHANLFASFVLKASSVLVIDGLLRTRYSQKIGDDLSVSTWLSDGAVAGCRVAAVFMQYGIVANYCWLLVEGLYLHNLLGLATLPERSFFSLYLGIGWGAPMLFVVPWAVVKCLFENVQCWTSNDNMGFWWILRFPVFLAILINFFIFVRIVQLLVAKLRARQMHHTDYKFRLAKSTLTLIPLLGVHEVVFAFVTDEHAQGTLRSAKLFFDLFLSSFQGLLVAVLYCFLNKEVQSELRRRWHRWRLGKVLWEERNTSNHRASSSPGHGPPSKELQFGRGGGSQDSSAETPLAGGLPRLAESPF

Take `CC[C@H](C)[C@H](NC(=O)C(C)(C)NC(=O)[C@H](CCC(N)=O)NC(=O)[C@@H](NC(=O)[C@H](Cc1ccccc1)NC(=O)[C@H](CC(=O)O)NC(=O)[C@H](CCCCNC(=O)COCCOCCNC(=O)COCCOCCNC(=O)CC[C@H](NC(=O)CCCCCCCCCCCCCCCCC(=O)O)C(=O)O)NC(=O)[C@H](C)NC(=O)[C@H](C)NC(=O)[C@H](CCCNC(=N)N)NC(=O)[C@H](CO)NC(=O)[C@H](CC(=O)O)NC(=O)[C@H](CC(C)C)NC(=O)[C@](C)(Cc1ccccc1)NC(=O)[C@H](CCCCN)NC(=O)[C@H](CO)NC(=O)[C@@H](NC(=O)[C@H](CC(=O)O)NC(=O)[C@H](CO)NC(=O)[C@@H](NC(=O)[C@](C)(Cc1ccccc1)NC(=O)[C@H](CO)NC(=O)CNC(=O)[C@H](Cc1c[nH]cn1)NC(=O)C(C)(C)NC(=O)[C@@H](N)Cc1c[nH]cn1)[C@@H](C)O)C(C)C)C(C)C)C(=O)N[C@@H](C)C(=O)N[C@@H](CC(N)=O)C(=O)N[C@H](C(N)=O)[C@@H](C)O` [Peptide 287] (H-H[Aib]HGS[αMeF]TSDVSK[αMeF]LDSRAAK([AEEA-AEEA-γGlu-C18 diacid])DFVQ[Aib]IANT-NH2): the EC50 in series [1] turned out to be 0.0265 nM. Also, in series [2] (Table 7, peptides modified at position 20, cAMP in CHO hGLP-1R cells, geometric mean, read-out: hGLP-1R EC50), the EC50 was 0.0275 nM. The “% Relative Potency Ratio” value in series [2] (Table 7, % GLP-1R activity relative to GLP-1 / % GlucR activity relative to glucagon) is on record as 1.9. In addition, in series [3] (isolated enzyme neprilysin), the fraction remaining at 4 h is 77% and the share remaining at 24 h was found to be 59%. Further, the “% intact peptide over time” value in series [3] was found to be 100%. Besides, in series [4], the amount remaining at 0.25 h, 125 µM was 0% and the fraction remaining at 0.5 h, 125 µM was 0%.
